Measured values: US5958966A, “Treatment of aberrant cellular states with biomodulators” (University of New Mexico, priority 1995, dated 1999)
Entries after “also recorded” stand apart in the source; their conditions may differ.

Assays:
canine glioma (CG) cells = assay: cell surface oligosaccharide display of canine glioma cells (lectin binding, Scatchard, Gibb's Free Energy); assay type: cell-based; conditions: control 14.9 kcal
Source text: Taken together these affinity differences account for almost 10 kcal of additional binding energy retrievable from interactions in the case of the IMR-90s which is unavailable to the CGs. […] This treatment regimen results in an increase in the Tg of the cells as well as changes in the proton linewidth of unfrozen water (shown below). […] This display more closely resembles that of the growth regulated IMR-90s. It should be noted that the actual lines on these figures are visual estimates however, the data in the boxes are calculated values. It is these values that are used to estimate the GFE for comparison purposes.
The cell surface oligosaccharide display was assessed by methods developed previously. In brief, cells from a sub-culturing were aliquotted into 96 well trays at 5×10^5 cells per ml, 100 μL aliquots. After 16 hours of culture the cells were washed, fixed, and blocked with 0.1% BSA/PBS. Optimal lectin concentrations (5 μg/ml)were used to give 80 to 90% saturation of the available sites. Three carbohydrate ligands at 10 μg concentrations in triplicate or quadruplicate were then used to prepare competition curves for the lectin binding. The Bound over Free (B/F) ratio was calculated and the Ligand microprocessor program was used to determine the optimal fit of the data to a polynomial generated model. The Gibb's Free Energy (GFE) was calculated from the Scatchard data on the competition assay by the following equation: GFE=-RT 1n Kequit. The proton NMR linewidth measurements were conducted as described previously.

[1] = system: plaque forming cells (splenocytes); assay: effect of swainsonine on humoral immunity (PFC assay); assay type: in vivo, mouse; conditions: for PFC versus control in words: listed as Sw
Description: The plaque forming cell (PFC) assay was done according to the method developed by Jerne and Nordin (1963). The splenocytes were washed in serum-free RPMI-1640 and brought to a final concentration of 1×10^6 cell/100 μl. Sheep red blood cells (sRBC), from The Colorado Serum Company, were labelled with protein A from Staphylococcus aureus (Sigma). The sRBC's were washed 3 times with saline (0.85% NaCl), the packed cells were then incubated with 1 ml of protein A (0.5 mg/ml saline) and 10 ml of saline containing 0.1 μl of CrCl3 (35% solution) (Aldrich), for 20 minutes. The sRBC's were then washed 3 times with PBS and suspended in PBS to make a 30% solution. The sRBC's (50 μl) and splenocytes (100 μl) were combined with SeaPlaque agarose (FMC Corporation) and smeared on a 75 mm×50 mm microscope slide to form a lawn of target red blood cells with uniformly dispersed effector cells. Each sample was done in triplicate. The agarose was allowed to harden and the slides were placed in trays containing serum-free RPMI-1640. The trays were incubated at 37° C. in a CO2 incubator for 90 min. After incubation the slides were placed in slide holders containing normal saline for a wash step. The rabbit/anti-mouse antibody (DAKO Corporation) was diluted 1:400 with serum free RPMI-1640 and added to the slide trays. Following another 90 min. incubation at 37° C. in a CO2 incubator, the slides were again washed. Fresh frozen guinea pig complement (GIBCO) (2%) in serum-free RPMI-1640 was added to the slide trays and incubated for another 60 to 90 min. depending on the time necessary for plaque formation. The number of plaques were counted and the results reported as number of plaque forming cells per 1×10^6 splenocytes.
Mice were pretreated for 3 weeks with Sw (0.1 μg and 0.01 μg), and then received B16 cells. At 3 time points post tumor cell injection (day 0, 7 and 14), the mice were sacrificed and the spleens were removed. The cells were then used to determine the effect of Sw on humoral immunity. […] The presence of a day 7 tumor caused a return to baseline for all the groups. A significant difference (p=0.001) was seen on day 14 post tumor injection with the mice treated with 0.01 μg Sw.

plaque forming cells = conditions: cited from earlier work
solid tumor models = conditions: Dennis 1986, 1989, 1990; cited from earlier work

## O[C@H]1[C@H]2[C@H](O)CCCN2C[C@H]1O [Swainsonine, swainsonine]
Canine glioma (CG) cells; 2 cycles
  Gibb's Free Energy: 15.2 kcal
Canine glioma (CG) cells; 4 cycles
  Gibb's Free Energy: 20.5 kcal
Canine glioma (CG) cells; 7 cycles
  Gibb's Free Energy: 21.9 kcal
[1]; 0.01 μg Sw, before tumor, p=0.001
  increase in plaque forming cells: 89%
[1]; 0.01 μg Sw, day 14
  increase in PFC over mice without Sw with day 14 tumors: 108%
  increase in PFC over mice without tumors or treatment: 144%
[1]; 0.1 μg Sw without tumor (p=0.04)
  PFC versus control in words: not as significantly different from the control group; also recorded: significant changes in the formation of plaques prior to tumor exposure
[1]; 0.1 μg Sw, day 14 (p=0.13)
  PFC versus control in words: not a significant difference between the controls and these treated mice; also recorded: even higher levels
Plaque forming cells; SW alone
  PFC numbers, SW alone: no changes in PFC numbers
Plaque forming cells; Sw 3.7-100 mg/kg i.p. 5 days
  antibody formation after immunosuppressive factor: return to normal levels of antibody production
Solid tumor models
  growth in other solid tumor models: delay growth in several other solid tumor models
